In patent US20200045962A1, “METHOD FOR PREPARING SURFACTANT COMPOSITIONS COMPRISING ALKYL LIDURONAMIDES D-GLUCURONAMIDES AND L-RHAMNOSIDES FROM ULVANS” (ÉCOLE NATIONALE SUPÉRIEURE DE CHIMIE, priority 2016, published 2020):

Legend:
Experiment in all cases: Protocol A: diffusion on agar in Petri dishes
Type in all cases: cell-based
Enterococcus faecium = system: Enterococcus faecium
Description: (§1) The culture medium used was a mixture of 21 g/L of Muller-Hinton broth and 10 g/L of agar in water. This mixture was stirred and then left to boil. Next, a step of autoclaving of this mixture for 30 minutes was necessary in order to sterilize it before any manipulation. This culture medium was poured, while hot, into Petri dishes and then left to cool.
(§2) 5 milligrams of RhamOC4 were dissolved in 1 mL of DMSO. Twofold serial dilution with DMSO was then performed starting with the stock solution, so as to obtain the concentrations 2.5 g·L^−1, 1.25 g·L^−1, 0.625 g·L^−1 and 0.3125 g·L^−1.
(§3) The bacterial strains used were Pseudomonas aeruginosa, Escherichia coli, Enterococcus faecium and Staphylococcus aureus, in addition to the fungal strain Candida albicans. 10^6 bacteria were collected and then transferred into a 0.9% NaCl solution. Each Petri dish, containing the Muller-Hinton medium, was inoculated with a different bacterial suspension.
(§4) After having left the bacterial suspensions to dry on the agar, 10 μL of the test solution (RhamOC4), at various concentrations, were deposited on the surface of the agar inoculated with the bacterial suspension. 10 μL of DMSO were placed in each Petri dish as negative control.
(§5) The positive controls used were discs soaked with ampicillin for Escherichia coli and Enterococcus faecium, ceftazidim discs for Pseudomonas aeruginosa and vancomycin discs for Staphylococcus aureus.
(§6) After drying, the Petri dishes were finally incubated at 37° C. in an oven for 24 hours. The antibacterial activity was evaluated by measuring the clarification zone in mm around the place of deposition of the various concentrations of the test RhamOC4 solution.

Escherichia coli = system: Escherichia coli
Description: as §1, §2, §3, §4, §5, §6

Pseudomonas aeruginosa = system: Pseudomonas aeruginosa
Description: as §1, §2, §3, §4, §5, §6

Staphylococcus aureus = system: Staphylococcus aureus
Description: as §1, §2, §3, §4, §5, §6

Candida albicans = system: Candida albicans
Description: as §1, §2, §3, §4, §6

[1] = antibiotic disc, concentration not given

CC1(C)S[C@@H]2[C@H](NC(=O)[C@H](N)c3ccccc3)C(=O)N2[C@H]1C(=O)O [Ampicillin, ampicillin, reference compound]
Clarification zone, E. faecium, positive control (Enterococcus faecium; [1]): (26 mm)
Clarification zone, E. coli, positive control (Escherichia coli; [1]): (22 mm)

CC(C)(O/N=C(\C(=O)N[C@@H]1C(=O)N2C(C(=O)[O-])=C(C[n+]3ccccc3)CS[C@H]12)c1csc(N)n1)C(=O)O [Ceftazidim, ceftazidim, reference compound]
Clarification zone, P. aeruginosa, positive control (Pseudomonas aeruginosa; [1]): (28 mm)

CCCCO[C@@H]1O[C@@H](C)[C@H](O)[C@@H](O)[C@H]1O [RhamOC4, n-butyl α-L-rhamnopyranoside]
zone of inhibition at 0.3125 mg/mL (Enterococcus faecium; Enterococcus faecium, 0.3125 mg·mL^−1, 10 μL, 24 hours 37° C., read-out: Clarification zone, E. faecium): 0 mm
zone of inhibition at 0.625 mg/mL (Enterococcus faecium; Enterococcus faecium, 0.625 mg·mL^−1, 10 μL, 24 hours 37° C., read-out: Clarification zone, E. faecium): 0 mm
zone of inhibition at 1.25 mg/mL (Enterococcus faecium; Enterococcus faecium, 1.25 mg·mL^−1, 10 μL, 24 hours 37° C., read-out: Clarification zone, E. faecium): 0 mm
zone of inhibition at 2.5 mg/mL (Enterococcus faecium; Enterococcus faecium, 2.5 mg·mL^−1, 10 μL, 24 hours 37° C., read-out: Clarification zone, E. faecium): 4 mm
zone of inhibition at 5 µg/mL (Enterococcus faecium; Enterococcus faecium, 5 mg·mL^−1, 10 μL, 24 hours 37° C., read-out: Clarification zone, E. faecium): 6 mm
zone of inhibition at 0.3125 mg/mL (Pseudomonas aeruginosa; Pseudomonas aeruginosa, 0.3125 mg·mL^−1, 10 μL, 24 hours 37° C., read-out: Clarification zone, P. aeruginosa): 0 mm
zone of inhibition at 0.625 mg/mL (Pseudomonas aeruginosa; Pseudomonas aeruginosa, 0.625 mg·mL^−1, 10 μL, 24 hours 37° C., read-out: Clarification zone, P. aeruginosa): 0 mm
zone of inhibition at 1.25 mg/mL (Pseudomonas aeruginosa; Pseudomonas aeruginosa, 1.25 mg·mL^−1, 10 μL, 24 hours 37° C., read-out: Clarification zone, P. aeruginosa): 0 mm
zone of inhibition at 2.5 mg/mL (Pseudomonas aeruginosa; Pseudomonas aeruginosa, 2.5 mg·mL^−1, 10 μL, 24 hours 37° C., read-out: Clarification zone, P. aeruginosa): 0 mm
zone of inhibition at 5 mg/mL (Pseudomonas aeruginosa; Pseudomonas aeruginosa, 5 mg·mL^−1, 10 μL, 24 hours 37° C., read-out: Clarification zone, P. aeruginosa): 4 mm
Inhibitory power on growth of Pseudomonas aeruginosa (Pseudomonas aeruginosa; summary of agar diffusion): poor inhibitory power
zone of inhibition at 0.3125 mg/mL (Escherichia coli; Escherichia coli, 0.3125 mg·mL^−1, 10 μL, 24 hours 37° C., read-out: Clarification zone, E. coli): 0 mm
zone of inhibition at 0.625 mg/mL (Escherichia coli; Escherichia coli, 0.625 mg·mL^−1, 10 μL, 24 hours 37° C., read-out: Clarification zone, E. coli): 0 mm
zone of inhibition at 1.25 mg/mL (Escherichia coli; Escherichia coli, 1.25 mg·mL^−1, 10 μL, 24 hours 37° C., read-out: Clarification zone, E. coli): 0 mm
zone of inhibition at 2.5 mg/mL (Escherichia coli; Escherichia coli, 2.5 mg·mL^−1, 10 μL, 24 hours 37° C., read-out: Clarification zone, E. coli): 4 mm
zone of inhibition at 5 mg/mL (Escherichia coli; Escherichia coli, 5 mg·mL^−1, 10 μL, 24 hours 37° C., read-out: Clarification zone, E. coli): 9 mm
zone of inhibition at 0.3125 mg/mL (Staphylococcus aureus; Staphylococcus aureus, 0.3125 mg·mL^−1, 10 μL, 24 hours 37° C., read-out: Clarification zone, S. aureus): 0 mm
zone of inhibition at 0.625 mg/mL (Staphylococcus aureus; Staphylococcus aureus, 0.625 mg·mL^−1, 10 μL, 24 hours 37° C., read-out: Clarification zone, S. aureus): 0 mm
zone of inhibition at 1.25 mg/mL (Staphylococcus aureus; Staphylococcus aureus, 1.25 mg·mL^−1, 10 μL, 24 hours 37° C., read-out: Clarification zone, S. aureus): 5 mm
zone of inhibition at 2.5 mg/mL (Staphylococcus aureus; Staphylococcus aureus, 2.5 mg·mL^−1, 10 μL, 24 hours 37° C., read-out: Clarification zone, S. aureus): 5 mm
zone of inhibition at 5 mg/mL (Staphylococcus aureus; Staphylococcus aureus, 5 mg·mL^−1, 10 μL, 24 hours 37° C., read-out: Clarification zone, S. aureus): 10.5 mm
Capacity to inhibit growth of Staphylococcus aureus (Staphylococcus aureus; summary of agar diffusion): very good capacity to inhibit the growth
zone of inhibition at 0.3125 mg/mL (Candida albicans; Candida albicans, 0.3125 mg·mL^−1, 10 μL, 24 hours 37° C., read-out: Clarification zone, C. albicans): 0 mm
zone of inhibition at 0.625 mg/mL (Candida albicans; Candida albicans, 0.625 mg·mL^−1, 10 μL, 24 hours 37° C., read-out: Clarification zone, C. albicans): 0 mm
zone of inhibition at 1.25 mg/mL (Candida albicans; Candida albicans, 1.25 mg·mL^−1, 10 μL, 24 hours 37° C., read-out: Clarification zone, C. albicans): 5 mm
zone of inhibition at 2.5 mg/mL (Candida albicans; Candida albicans, 2.5 mg·mL^−1, 10 μL, 24 hours 37° C., read-out: Clarification zone, C. albicans): 14 mm
zone of inhibition at 5 mg/mL (Candida albicans; Candida albicans, 5 mg·mL^−1, 10 μL, 24 hours 37° C., read-out: Clarification zone, C. albicans): 18 mm
Capacity to inhibit growth of Candida albicans (Candida albicans; summary of agar diffusion): very good capacity to inhibit the growth

CN[C@H](CC(C)C)C(=O)N[C@H]1C(=O)N[C@@H](CC(N)=O)C(=O)N[C@H]2C(=O)N[C@H]3C(=O)N[C@H](C(=O)N[C@H](C(=O)O)c4cc(O)cc(O)c4-c4cc3ccc4O)[C@H](O)c3ccc(c(Cl)c3)Oc3cc2cc(c3O[C@@H]2O[C@H](CO)[C@@H](O)[C@H](O)[C@H]2O[C@H]2C[C@](C)(N)[C@H](O)[C@H](C)O2)Oc2ccc(cc2Cl)[C@H]1O [Vancomycin, vancomycin, reference compound]
Clarification zone, S. aureus, positive control (Staphylococcus aureus; [1]): (19 mm)
